As a reminder, the IC50 is the concentration that gives 50% inhibition.

For the assay, the target named is T1, human PPARα (Homo sapiens, UniProt Q07869).
T1 construct: host or cells: proprietary non-human mammalian cells
T1 sequence (Q07869 1-468): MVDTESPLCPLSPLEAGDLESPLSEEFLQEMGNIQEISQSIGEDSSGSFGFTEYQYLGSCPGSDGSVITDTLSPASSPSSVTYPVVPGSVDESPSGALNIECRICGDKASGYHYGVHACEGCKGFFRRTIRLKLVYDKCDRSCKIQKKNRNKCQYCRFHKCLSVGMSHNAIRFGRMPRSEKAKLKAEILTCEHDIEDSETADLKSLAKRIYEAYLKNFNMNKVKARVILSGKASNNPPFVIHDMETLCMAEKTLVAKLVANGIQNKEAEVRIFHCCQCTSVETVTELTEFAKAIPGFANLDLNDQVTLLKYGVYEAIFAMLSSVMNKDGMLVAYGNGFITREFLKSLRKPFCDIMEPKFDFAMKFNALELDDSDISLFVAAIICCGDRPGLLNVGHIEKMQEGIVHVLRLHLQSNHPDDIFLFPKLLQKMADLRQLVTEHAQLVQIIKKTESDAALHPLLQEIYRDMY
As to the kind of experiment: Human PPARα Reporter Assay (luciferase, Indigo Biosciences). It is filed as cell-based. Conditions: antagonism; luciferase reporter cells, overnight incubation; read-out: PPARα IC50. How it is done:
Human PPARα Reporter Assay
The screening of test compounds for agonist or antagonist activities against human PPARα receptors was performed using a commercial kit, Human PPARα Reporter Assay System (Indigo Biosciences, Cat. #IB00111).
This nuclear receptor assay system utilizes proprietary non-human mammalian cells engineered to provide constitutive, high-level expression of Human PPARα. Because these cells incorporate a PPARα-responsive luciferase reporter gene, quantifying expressed luciferase activity provides a sensitive surrogate measure of PPARα activity in the treated cells. The primary application of this reporter assay system is in the screening of test samples to quantify any functional activity, either agonist or antagonist, that they may exert against human PPARα.
Briefly, reporter cells are dispensed into wells of the assay plate and then immediately dosed with test compounds. Following an overnight incubation, the treatment media is discarded and Luciferase Detection Reagent (LDR) is added. The intensity of light emission from the ensuing luciferase reaction provides a sensitive measure that is directly proportional to the relative level of PPARα activation in the reporter cells.
A general note: In a reporter assay the amount or activity of a reporter protein is the signal.
In the case of `Cc1ccc(N2N=C(CCCc3ccc(OC(C)(C)C(=O)NCC(F)(F)F)cc3)C3(CCCC3)C2=O)cc1C` [Example 33, 2-(4-(3-(3-(3,4-dimethylphenyl)-4-oxo-2,3-diazaspiro[4,4]non-1-en-1-yl)propyl)phenoxy)-2-methyl-N-(2,2,2-trifluoroethyl)propanamide], the IC50 is 500 nM.
With `CC(C)(Oc1ccc(CCCC2=NN(Cc3ccc(C(F)(F)F)cc3)C(=O)C23CCCC3)cc1)C(=O)O` [Example 34, 2-methyl-2-(4-(3-(4-oxo-3-(4-(trifluoromethyl)benzyl)-2,3-diazaspiro[4,4]non-1-en-1-yl)propyl)phenoxy)propanoic acid] the figure was 960 nM; with `CC(C)(Oc1ccc(CCCC2=NN(c3cccc(C(F)(F)F)c3)C(=O)C23CCCC3)cc1)C(=O)O` [Example 35, 2-methyl-2-(4-(3-(4-oxo-3-(3-(trifluoromethyl)phenyl)-2,3-diazaspiro[4,4]non-1-en-1-yl)propyl)phenoxy)propanoic acid], 32 nM.
The same measure for `CC(C)(Oc1ccc(CCCC2=NN(c3cccc(OC(F)(F)F)c3)C(=O)C23CCCC3)cc1)C(=O)O` [Example 36, 2-methyl-2-(4-(3-(4-oxo-3-(3-(trifluoromethoxy)phenyl)-2,3-diazaspiro[4,4]non-1-en-1-yl)propyl)phenoxy)propanoic acid]: 27 nM; for `CC(C)(Oc1ccc(CCCC2=NN(c3ccc4ccccc4c3)C(=O)C23CCCC3)cc1)C(=O)O` [Example 37, 2-methyl-2-(4-(3-(3-(naphthalen-2-yl)-4-oxo-2,3-diazaspiro[4,4]non-1-en-1-yl)propyl)phenoxy)propanoic acid]: 2.8 nM.
With `CC(C)(Oc1ccc(CCCC2=NN(c3cccc(-c4ccccc4)c3)C(=O)C23CCCC3)cc1)C(=O)O` [Example 38, 2-(4-(3-(3-([1,1′-biphenyl]-3-yl)-4-oxo-2,3-diazaspiro[4,4]non-1-en-1-yl)propyl)phenoxy)-2-methylpropanoic acid], the IC50 stood at 25 nM.
As to `Cc1ccc(N2N=C(CCCc3ccc(OC(C)(C)C(=O)O)cc3)C3(CCCC3)C2=O)cc1C(F)(F)F` [Example 39, 2-methyl-2-(4-(3-(3-(4-methyl-3-(trifluoromethyl)phenyl)-4-oxo-2,3-diazaspiro[4,4]non-1-en-1-yl)propyl)phenoxy)propanoic acid], the IC50 turned out to be 3.1 nM.
The same measure for `CC(C)(Oc1ccc(CCCC2=NN(c3cccc(C(C)(C)C)c3)C(=O)C23CCCC3)cc1)C(=O)O` [Example 40, 2-(4-(3-(3-(3-(tert-butyl)phenyl)-4-oxo-2,3-diazaspiro[4,4]non-1-en-1-yl)propyl)phenoxy)-2-methylpropanoic acid]: 20 nM; for `CCCC1(CCC)C(=O)N(c2ccc(C(F)(F)F)cc2)N=C1CCCc1ccc(OC(C)(C)C(=O)O)cc1` [Example 41, 2-methyl-2-(4-(3-(5-oxo-4,4-dipropyl-1-(4-(trifluoromethyl)phenyl)-4,5-dihydro-1H-pyrazol-3-yl)propyl)phenoxy)propanoic acid]: 15000 nM; for `CCCC1(CCC)C(=O)N(c2cccc(C(F)(F)F)c2)N=C1CCCc1ccc(OC(C)(C)C(=O)O)cc1` [Example 42, 2-methyl-2-(4-(3-(5-oxo-4,4-dipropyl-1-(3-(trifluoromethyl)phenyl)-4,5-dihydro-1H-pyrazol-3-yl)propyl)phenoxy)propanoic acid]: 34000 nM.
Consider `CC1(C)C(=O)N(c2ccc(C(F)(F)F)cc2)N=C1CCCc1ccc(OC(C)(C)C(O)C(F)(F)F)cc1` (stereo not drawn) [Example 43, 4,4-dimethyl-3-(3-(4-((4,4,4-trifluoro-3-hydroxy-2-methylbutan-2-yl)oxy)phenyl)propyl)-1-(4-(trifluoromethyl)phenyl)-1H-pyrazol-5(4H)-one], for which the IC50 was 1200 nM.
The same measure for `CC(C)(Oc1ccc(CCCC2=NN(c3ccc(C(F)(F)F)cc3)C(=O)C2(C)C)cc1)C(=O)C(F)(F)F` [Example 44, 4,4-dimethyl-3-(3-(4-((4,4,4-trifluoro-2-methyl-3-oxobutan-2-yl)oxy)phenyl)propyl)-1-(4-(trifluoromethyl)phenyl)-1H-pyrazol-5(4H)-one]: 610 nM.
Consider `CC(C)(CN)Oc1ccc(CCCC2=NN(c3ccc(C(F)(F)F)cc3)C(=O)C23CCCC3)cc1` [Example 45, 4-(3-(4-((1-amino-2-methylpropan-2-yl)oxy)phenyl)propyl)-2-(4-(trifluoromethyl)phenyl)-2,3-diazaspiro[4,4]non-3-en-1-one], for which the IC50 worked out at 840 nM.
For `CC(C)(CNS(=O)(=O)c1ccccc1)Oc1ccc(CCCC2=NN(c3ccc(C(F)(F)F)cc3)C(=O)C23CCCC3)cc1` [Example 46, N-(2-methyl-2-(4-(3-(4-oxo-3-(4-(trifluoromethyl)phenyl)-2,3-diazaspiro[4,4]non-1-en-1-yl)propyl)phenoxy)propyl)benzenesulfonamide], the IC50 turned out to be 1300 nM.
Take `CC(C)(CNC(=O)c1ccccc1)Oc1ccc(CCCC2=NN(c3ccc(C(F)(F)F)cc3)C(=O)C23CCCC3)cc1` [Example 47, N-(2-methyl-2-(4-(3-(4-oxo-3-(4-(trifluoromethyl)phenyl)-2,3-diazaspiro[4,4]non-1-en-1-yl)propyl)phenoxy)propyl)benzamide]: the IC50 worked out at 580 nM.
The same measure for `CC1(C)C(=O)N(c2ccc(C(F)(F)F)cc2)N=C1CCCc1ccc(OC(C(=O)O)c2ccccc2)cc1` (stereo not drawn) [Example 48, 2-(4-(3-(4,4-dimethyl-5-oxo-1-(4-(trifluoromethyl)phenyl)-4,5-dihydro-1H-pyrazol-3-yl)propyl)phenoxy)-2-phenylacetic acid]: 4.7 nM; for `CC1(C)C(=O)N(c2ccc(C(F)(F)F)cc2)N=C1CCCc1ccc(OCC(=O)O)cc1` [Example 49, 2-(4-(3-(4,4-dimethyl-5-oxo-1-(4-(trifluoromethyl)phenyl)-4,5-dihydro-1H-pyrazol-3-yl)propyl)phenoxy)acetic acid]: 54 nM; for `CC1(C)C(=O)N(c2cccc(C(F)(F)F)c2)N=C1CCCc1ccc(OC2(C(=O)O)CCC2)cc1` [Example 51, 1-(4-(3-(4,4-dimethyl-5-oxo-1-(3-(trifluoromethyl)phenyl)-4,5-dihydro-1H-pyrazol-3-yl)propyl)phenoxy)cyclobutanecarboxylic acid]: 58 nM.
With `CC1(C)C(=O)N(c2ccc(C(F)(F)F)cc2)N=C1CCCc1ccc(OC2(C(=O)O)CCCC2)cc1` [Example 52, 1-(4-(3-(4,4-dimethyl-5-oxo-1-(4-(trifluoromethyl)phenyl)-4,5-dihydro-1H-pyrazol-3-yl)propyl)phenoxy)cyclopentanecarboxylic acid] the figure was 4.1 nM; with `CCOc1ccc(-c2ccc(CCCC3=NN(Cc4ccc(C(C)(C)C)cc4)C(=O)C3(C)C)cc2)cc1CC(=O)O` [Example 55, 2-(4′-(3-(1-(4-(tert-butyl)benzyl)-4,4-dimethyl-5-oxo-4,5-dihydro-1H-pyrazol-3-yl)propyl)-4-ethoxy-[1,1′-biphenyl]-3-yl)acetic acid], 110 nM.
For the compound `COc1ccc(-c2ccc(CCCC3=NN(Cc4ccc(C(C)(C)C)cc4)C(=O)C3(C)C)cc2)nc1NS(=O)(=O)c1ccccc1` [Example 59, N-(6-(4-(3-(1-(4-(tert-butyl)benzyl)-4,4-dimethyl-5-oxo-4,5-dihydro-1H-pyrazol-3-yl)propyl)phenyl)-3-methoxypyridin-2-yl)benzenesulfonamide], the IC50 was found to be 10 nM.

The values are drawn from patent US9862708B2, “Pyrazolone compounds and uses thereof” (Tempest Therapeutics, Inc., priority 2014, dated 2018).
